For this test, the target named is Mu-type opioid receptor (Homo sapiens, UniProt P35372). The test is described as follows: Competitive Displacement Assay: Membrane protein from CHO (Chinese Hamster Ovarian) cells that stably expressed one type of the cloned human opioid receptor were incubated with 12 different concentrations of the compound in the presence of 0.25 nM [3H]DAMGO, 0.2 nM [3H]naltrindole or 1 nM [3H]U69,593 in a final volume of 1 mL of 50 mM Tris-HCl, pH 7.5 at 25° C. Incubation times of 60 min were used for [3H]DAMGO and [3H]U69,593. Because of a slower association of [3H]naltrindole with the receptor, a 3 h incubation was used with this radioligand. Samples incubated with [3H]naltrindole also contained 10 mM MgCl2 and 0.5 mM phenylmethylsulfonyl fluoride. Nonspecific binding was measured by inclusion of 10 μM naloxone. The binding was terminated by filtering the samples through Schleicher & Schuell No. 32 glass fiber filters using a Brandel 48-well cell harvester. The filters were subsequently washed three times with 3 mL of cold 50 mM Tris-HCl, pH 7.5, and were counted in 2 mL Ecoscint A scintillation fluid. For [3H]naltrindole and [3H]U69,593 binding, the filters were soaked in 0.1% polyethylenimine for at least 60 min before use.

The structures appear in SMILES notation.

The values below come from ChEMBL document CHEMBL5727660, “Compounds for the treatment of pain” (2020).

A word on the Ki: it is a measure of affinity in units of concentration, obtained from inhibition or displacement.

Mu-type opioid receptor, sequence (P35372 whole entry): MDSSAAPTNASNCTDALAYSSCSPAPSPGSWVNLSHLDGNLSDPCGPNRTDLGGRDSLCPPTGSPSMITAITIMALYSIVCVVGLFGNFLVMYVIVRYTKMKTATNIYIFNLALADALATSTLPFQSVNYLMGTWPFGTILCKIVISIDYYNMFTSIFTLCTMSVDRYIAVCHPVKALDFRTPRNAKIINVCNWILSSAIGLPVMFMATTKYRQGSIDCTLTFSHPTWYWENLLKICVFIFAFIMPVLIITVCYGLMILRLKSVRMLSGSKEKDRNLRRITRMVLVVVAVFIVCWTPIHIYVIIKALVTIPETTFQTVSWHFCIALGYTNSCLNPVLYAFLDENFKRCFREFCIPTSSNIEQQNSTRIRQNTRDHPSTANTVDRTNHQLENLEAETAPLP

Take `COC1(c2ccnc(C(N)=O)c2)C2CCCC1CN(Cc1cc3ccccc3[nH]1)C2` (stereo unspecified): the inhibition constant Ki is under 1 nM.
